Measurements reported in US8357634B2, “N-alkoxycarboxamides and their use as microbiocides” (Syngenta Crop Protection LLC, priority 2009, dated 2013).

Assays:
Septoria tritici = experiment: Example B-3: Action against Septoria tritici, fungal growth assay; format: cell-based; conditions: Zymoseptoria tritici; 0.002% active ingredient; PDB broth, 24° C., photometric after 72 hrs
Description: (§1) Action Against Septoria tritici—Fungal Growth Assay Conidia of the fungus from cryogenic storage were directly mixed into nutrient broth (PDB potato dextrose broth). After placing a (DMSO) solution of the test compounds (0.002% active ingredient) into a microtiter plate (96-well format) the nutrient broth containing the fungal spores was added. The test plates were incubated at 24° C. and the inhibition of growth was determined photometrically after 72 hrs. The activity of a compound was expressed as fungal growth inhibition (0=no growth inhibition, ratings of 80% to 99% mean good to very good inhibition, 100%=complete inhibition).

Pyrenophora teres = experiment: Example B-8: Action against Pyrenophora teres (net blotch) on barley leaf segments; format: in vivo; conditions: foliar, 96 h, 0.02% active ingredient, 4 days after inoculation, read-out: preventive fungicidal activity (inhibition)
Description: (§2) Action Against Pyrenophora teres (Net Blotch) on Barley Barley leaf segments were placed on agar in multiwell plates (24-well format) and sprayed with test solutions (0.02% active ingredient). After drying, the leaf disks were inoculated with a spore suspension of the fungus. After appropriate incubation the activity of a compound was assessed 4 days after inoculation as preventive fungicidal activity.

[1] = tested on: Erysiphe graminis f. sp. tritici; experiment: Example B-5: Action against Erysiphe graminis f. sp. tritici (wheat powdery mildew), wheat leaf segments; format: in vivo; conditions: Blumeria graminis, foliar, 168 h, 0.02% active ingredient, 7 days after inoculation, read-out: preventive fungicidal activity (inhibition)
Description: as §2, with “Against Erysiphe graminis f. sp. tritici (Wheat Powdery Mildew) Wheat” for “Against Pyrenophora teres (Net Blotch) on Barley Barley”, “assessed 7” for “assessed 4”

[2] = tested on: Mycosphaerella arachidis (Cercospora arachidicola); experiment: Example B-2: Action against Mycosphaerella arachidis, fungal growth assay; format: cell-based; conditions: 0.002% active ingredient, PDB broth, 24° C., photometric after 6-7 days
Description: as §1, with “Mycosphaerella arachidis (Early Leaf Spot of Groundnut; Cercospora arachidicola [fanamorph])—Fungal” for “Septoria tritici—Fungal”, “measured” for “determined”, “6-7 days.” for “72 hrs.”

Puccinia recondita [3] = experiment: Example B-6: Protective action against Puccinia recondita (brown rust) on wheat leaf segments; format: in vivo; conditions: foliar, 192 h, 0.02% active ingredient, 8 days after inoculation, read-out: preventive fungicidal activity (inhibition)
Description: as §2, with “Protective Action” for “Action”, “Against Puccinia recondita (Brown Rust)” for “Against Pyrenophora teres (Net Blotch)”, “on Wheat Wheat” for “on Barley Barley”, “assessed 8” for “assessed 4”

Puccinia recondita [4] = experiment: Example B-7: Curative action against Puccinia recondita (brown rust) on wheat leaf segments; format: in vivo; conditions: 0.02% active ingredient sprayed one day after inoculation, 8 days after inoculation; for inhibition at 0.02 % strength: Puccinia recondita, foliar, read-out: curative fungicidal activity (inhibition)
Description: Curative Action Against Puccinia recondita (Brown Rust) on Wheat Wheat leaf segments were placed on agar in multiwell plates (24-well format) and inoculated with a spore suspension of the fungus. One day after inoculation the leaf segments were sprayed with test solutions (0.02% active ingredient). After appropriate incubation the activity of a compound was assessed 8 days after inoculation as curative fungicidal activity.

Botrvtis cinerea = experiment: Example B-1: Action against Botrytis cinerea, fungal growth assay; format: cell-based; conditions: 0.002% active ingredient, PDB broth, 24° C., photometric after 3-4 days
Description: as §1, with “Action against Botrvtis cinerea—fungal growth assay” for “Action Against Septoria tritici—Fungal Growth Assay”, “storage was” for “storage were”, “was measured” for “was determined”, “after 3-4 days.” for “after 72 hrs.”

melting point	SMILES	inhibition at 0.002 % strength (Septoria tritici)	inhibition at 0.02 % strength (Pyrenophora teres)	inhibition at 0.02 % strength [1]	inhibition at 0.002 % strength [2]	inhibition at 0.02 % strength (Puccinia recondita [3])	inhibition at 0.02 % strength (Puccinia recondita [4])	inhibition at 0.002 % strength (Botrvtis cinerea)	curative fungicidal activity (inhibition) (Puccinia recondita [4])
72 to 74 °C	CON(C(=O)c1cn(C)nc1C(F)F)C(C)c1ccc(I)cc1 (centres unmarked) [Compound 1.003, 3-difluoromethyl-1-methyl-1H-pyrazole-4-carboxylic acid [1-(4-iodo-phenyl)-ethyl]-methoxy-amide]	≥ 80%	≥ 80%	≥ 80%	≥ 80%	≥ 80%	–	–	–
136 to 138 °C	CON(C(=O)c1cn(C)nc1C(F)F)C(C)c1cccc(I)c1 (centres unmarked) [Compound 1.014, 3-Difluoromethyl-1-methyl-1H-pyrazole-4-carboxylic acid [1-(3-iodo-phenyl)-ethyl]-methoxy-amide]	≥ 80%	≥ 80%	≥ 80%	≥ 80%	≥ 80%	≥ 80%	≥ 80%	–

Further lines, the molecule ahead of its results:

SMILES	melting point	inhibition at 0.002 % strength (Septoria tritici)	inhibition at 0.02 % strength (Pyrenophora teres)	inhibition at 0.02 % strength [1]	inhibition at 0.002 % strength [2]	inhibition at 0.02 % strength (Puccinia recondita [3])	inhibition at 0.02 % strength (Puccinia recondita [4])	inhibition at 0.002 % strength (Botrvtis cinerea)	curative fungicidal activity (inhibition) (Puccinia recondita [4])
CON(C(=O)c1cn(C)nc1C(F)F)C(C)c1cccc(-c2ccc(Cl)c(Cl)c2)c1 (centres unmarked) [Compound 1.020, 3-difluoromethyl-1-methyl-1H-pyrazole-4-carboxylic acid [1-(3′,4′-dichloro-biphenyl-3-yl)-ethyl]-methoxy-amide]	162 to 164 °C	≥ 80%	≥ 80%	–	≥ 80%	≥ 80%	–	≥ 80%	–
CON(Cc1ccc(Cl)cc1Cl)C(=O)c1cn(C)nc1C(F)F [Compound 1.091, 3-difluoromethyl-1-methyl-1H-pyrazole-4-carboxylic acid (2,4-dichlorobenzyl)-methoxy-amide]	–	≥ 80%	≥ 80%	–	≥ 80%	≥ 80%	50%	–	–
CON(C(=O)c1cn(C)nc1C(F)F)C(CF)c1ccc(Cl)cc1 (centres unmarked) [Compound 1.107]	–	–	–	–	–	–	–	–	50%
